Data taken from publication PMC11589483, “Preparation and anti-colon cancer effect of a novel curcumin analogue (CA8): in vivo and in vitro evaluation” (Frontiers in Pharmacology, 2024).
Where two headings read alike, the source gives them in different places.

Key:
liver cancer cells HepG2 = test: MTT antiproliferative assay, HepG2; type: cell-based; settings: Homo sapiens
Experimental: (§1) The human cancer cell lines A549, HepG2, MCF-7, Caco-2, and HeLa and the normal human liver cell line LO2 were all obtained from Shanghai Cell Bank of China. All cells were cultured in RPMI 1640 or DMEM supplemented with 10% fetal bovine serum, 100 U/mL penicillin, and 100 μg/mL streptomycin and incubated at 37°C under 5% CO2 (HEPA incubator class100 Thermo company). The medium was replaced three times a week. Cells used in all were in the exponential growth phase.
(§2) The cell inhibition rate was evaluated using the MTT assay. Briefly, cells were seeded in a 96-well plate at a density of 3–4 × 10^3 cells per well and incubated at 37°C for 24 h. The MCACs to be tested were dissolved in dimethyl sulfoxide (DMSO, Merck, Germany) and diluted to five concentrations (3.75, 7.5, 15, 30, 60 μM/L) with RPMI 1640 medium, with each dose analyzed in quadruplicate. The concentration of DMSO was always maintained below 1‰, a concentration that is nontoxic to cells. After incubation for 24 or 48 h, MTT reagent (5 mg/mL) was added to each well and the samples were incubated for 3 h at 37°C in the dark. The absorbance of formazan crystals dissolved in 150 µL of DMSO was measured at 570 nm using a microplate reader to identify the cytotoxic effect of the analogues.

Caco-2 xenograft tumors = test: In vivo anticancer activity, Caco-2 xenograft; settings: Caco-2 xenograft; CA8 100 mg/kg, CU 100 mg/kg, tegafur 50 mg/kg, gavage every other day
Experimental: Twenty 5-week-old male BALB nude mice purchased from SPF (Beijing) Biotechnology Co., Ltd. were used for the in vivo pharmacodynamic experiment of CA8. Caco-2 cells (6 × 10^6 cells in 100 μL PBS) were harvested and subcutaneously injected into the right hip of the mice. Then, they were divided into four groups when the tumor volume reached 100 mm^3 and treated with saline, CU (100 mg/kg), tegafur (50 mg/kg), or CA8 (100 mg/kg) via gavage every other day. Tumor size and body weight were measured and recorded every other day. At the end of the experiment, the mice were sacrificed and tumors were harvested and weighed. Tumor volumes were calculated by measuring length (L) and width (W) according to the following formula: V = 0.5 × L × W^2. The tumor tissue was embedded in paraffin, cut into slices, stained with HE, and observed under a light microscope.

Caco-2 cells [1] = test: Clonogenic assay; type: cell-based, human; settings: 4, 8, or 16 μM/L, 6 h exposure
Experimental: Caco-2 cells were seeded into a 6-well plate at a density of 1 × 10^3 cells per well and incubated overnight. Then, the medium was replaced, and CA8 was added at the prescribed concentrations (4, 8, or 16 μM/L). After 6 h, the drug-containing medium was replaced with RPMI 1640 medium.
Caco-2 cells in 6-well plates were incubated for 1–2 weeks until the appearance of the colonies, followed by staining with crystal violet and incubation for 1 h at room temperature. After staining, images were captured accordingly.

[2] = tested on: normal human liver cell line LO2; test: MTT assay, normal liver cells LO2; type: cell-based
Experimental: as §1, §2

[3] = tested on: cervical cancer cells HeLa; test: MTT antiproliferative assay, HeLa; type: cell-based; settings: Homo sapiens
Experimental: as §1, §2

[4] = Solubility in water by HPLC; type: physicochemical; settings: 25°C, mass of solute dissolved at saturation in 100 g of solvent
Experimental: The solubility of the synthesized compounds in water was determined using high performance liquid chromatography (HPLC). First, 1.000 g of each compound was accurately weighed, placed in 100 g of water, and stirred at 25°C for a period of time. Then, the reaction system was allowed to stand for 1 h. The supernatant was quantitatively taken, diluted with methanol to volume, and centrifuged, and the solubility was determined using HPLC.

Caco-2 cells [5] = test: Apoptosis assay (Annexin V-FITC/propidium iodide flow cytometry); type: cell-based, human; settings: 4, 8, 16 μM, 24 h
Experimental: The apoptotic effect of CA8 was assessed in Caco-2 cells according to the kit instructions. First, Caco-2 cells were treated with CA8 at dose of 4, 8, or 16 μM/L for 24 h. The cells were harvested and suspended in 500 μL annexin-binding buffer. Subsequently, the cells were stained with Annexin V-FITC for 15 min and then incubated with propidium iodide for 5 min at room temperature in the dark. Finally, all samples were evaluated via flow cytometry (FACS Calibur, BD, San Jose, CA, United States). The results obtained were analyzed using the FlowJo software, and the apoptotic rate was calculated.

[6] = tested on: colon cancer cells Caco-2; test: MTT antiproliferative assay, Caco-2; type: cell-based, human; settings: for IC50: Homo sapiens, read-out: IC50 Caco2
Experimental: as §1, §2

[7] = tested on: breast cancer cells MCF-7; test: MTT antiproliferative assay, MCF-7; type: cell-based; settings: Homo sapiens
Experimental: as §1, §2

[8] = Pharmacokinetics evaluation after gavage; type: in vivo, Sprague Dawley (SD) rats; settings: SD rats
Experimental: After the evaluation of the safety of CA8, 10 male Sprague Dawley (SD) rats were randomly divided into the CA8 and CU groups for the pharmacokinetic test ([Ye et al., 2020]). The rats were subjected to 1 week of adaptation and were fasted for 6 h before the experiment. CA8 (50 mg kg^−1) and CU (50 mg kg^−1) were administered via gavage. Blood samples were collected at 0.03, 0.08, 0.16, 0.25, 0.5, 1, 2, 4, 8 and 12 h and centrifuged at 5,000 rpm for 3 min to obtain the plasma. A mixture of ethyl acetate and methanol was then added to precipitate the proteins and separate the CA8 and CU from the plasma. The samples were then analyzed using HPLC.

[9] = tested on: AKT, JNK, and NF-κB signaling pathways and apoptosis-related proteins; test: Western blot of signaling and apoptosis proteins in Caco-2 cells; type: cell-based, human; settings: Caco-2, 4, 8, 16 μM, 24 h, vs control
Experimental: The expression of apoptotic proteins and pathways was detected using western blot. Caco-2 cells treated with CA8 at a dose of 4, 8, or 16 μM/L for 24 h were collected and lysed with RIPA lysis buffer for 10 min. The concentration of total proteins was determined using a BCA protein quantitative kit. Total proteins were separated on an SDS-PAGE gel, transferred to PVDF membranes and incubated with 5% skim milk for 2 h. Subsequently, the PVDF membranes were incubated with primary antibodies (AKT 1:2000; Bcl-2 1:2000; Bax 1:5000; caspase-3 1:2,000; caspase-9 1:1000; P-AKT 1:1000; JNK 1:1000; P-JNK 1:1000; IKBα 1:2000; and β-actin 1:100000) at 4°C overnight. The membranes were rinsed three times with TBST and incubated with secondary antibodies (1:5000 dilution) for 2–3 h at room temperature. Finally, proteins were visualized using an ECL chemiluminescent kit (KF001, affinity). In the final step, the ImageJ software was used to analyze the results.

lung cancer cells A549 = test: MTT antiproliferative assay, A549; type: cell-based; settings: Homo sapiens
Experimental: as §1, §2

Caco-2 cells [10] = test: Cell cycle analysis (flow cytometry); type: cell-based, human; settings: 4, 8, 16 μM, 24 h
Experimental: Caco-2 cells treated with CA8 at dose of 4, 8, or 16 μM/L for 24 h, they were collected, washed with PBS, and fixed in 70% ethanol overnight. The fixed cells were washed twice with PBS, treated with RNase A (10 mg/mL) and resuspended in 50 μg/mL propidium iodide for staining. Finally, the cell cycle distribution was assessed via flow cytometry (BD Biosciences, CA).

[11] = set-up: method as in Al-Hujaily et al., 2011; settings: ref Al-Hujaily et al., 2011; cited from earlier work

Q: Which results are given for `COc1cc(/C=C/C(=O)CC(=O)/C=C/c2ccc(O)c(OC)c2)ccc1O` [CU, Curcumin]?
A: IC50 (liver cancer cells HepG2; HepG2, 24 h): 43.4 ± 2.9 µM; IC50 (liver cancer cells HepG2; HepG2, 48 h): 27.4 ± 0.3 µM; inhibitory effect on tumor growth (Caco-2 xenograft tumors): CA8 > tegafur > CU; Caco-2 colony formation (Caco-2 cells [1]): did not have a significant inhibitory effect; IC50 ([2]; 24 h): > 60 µM; IC50 ([2]; 48 h): 27.6 ± 1.36 µM; IC50 ([3]; 24 h): 58.3 ± 2.2 µM; IC50 ([3]; 48 h): 17.3 ± 0.8 µM; Solubility [4]: 0.00017 mg/100g; induction of apoptosis (Caco-2 cells [5]): induced early and late apoptosis in a concentration-dependent manner; SI Caco2 ([6]; 48 h, logarithm of ratio IC50 LO2 / IC50 cancer cells): −0.08; IC50 ([6]; Caco-2, 24 h): > 60 µM; IC50 ([6]; Caco-2, 48 h): 33 ± 2.1 µM; IC50 ([7]; MCF7, 24 h): 40 ± 2.7 µM; IC50 ([7]; MCF7, 48 h): 22.3 ± 1.6 µM; time after dosing until cleared from / still detected in plasma ([8]; oral 50 mg kg^−1): 2 h; AUC(0-t) ([8]; oral (gavage) 50 mg kg^−1): 35,697.63 μg/L*min; CLz ([8]; oral (gavage) 50 mg kg^−1): 900 mL/min/kg; Tmax ([8]; oral (gavage) 50 mg kg^−1): 30.00 min; Vz ([8]; oral (gavage) 50 mg kg^−1): 97.58 L/kg; Cmax ([8]; male, Sprague Dawley, rat, plasma, oral (gavage) 50 mg kg^−1): 380 ng/mL; MRT last ([8]; male, Sprague Dawley, rat, plasma, oral (gavage) 50 mg kg^−1, read-out: MRT(0-t) (converted)): 54 min; half-life ([8]; male, Sprague Dawley, rat, plasma, oral (gavage) 50 mg kg^−1, read-out: t1/2z): 74.8 min; expression of P-AKT [9]: inhibited the expression of P-AKT; expression of P-JNK and IκBα [9]: induced the expression of P-JNK and IκBα in a concentration-dependent manner; IC50 (lung cancer cells A549; A549, 24 h): 37.2 ± 2.9 µM; IC50 (lung cancer cells A549; A549, 48 h): 34.4 ± 1.5 µM; cell cycle arrest (Caco-2 cells [10]): induced S-phase arrest only to a lesser extent

Q: For `COc1cc(C=C2CN(C)CC(=Cc3ccc(O)c(OC)c3)C2=O)ccc1O` [PAC], which “solubility in water, times that of CU” value [11] is on record?
A: 27 times
